Assay results taken from ChEMBL document CHEMBL6153050, “Repurposing FDA-approved drugs to target G-quadruplexes in breast cancer” (Eur J Med Chem, 2025).
Activity calls are given as the source filed them. No cut-off for these calls is given here.

Assays:
SK-BR-3 [1] = experiment: Induction of cell cycle arrest in human SK-BR-3 cells assessed as accumulation of cells at G2/M phase at IC50 concentration incubated for 6 days by PI staining based flow cytometric analysis; format: functional; conditions: time 6.0 day
Quadruplex DNA [2] = experiment: Binding affinity to HER2 G4 quadruplex DNA (GGAGAAGGAGGAGGTGGAGGAGGAGGG) (unknown origin) assessed as Gibbs free energy by ITC analysis; format: nucleic-acid assay
Quadruplex DNA [3] = experiment: Binding affinity to HER2 G4 quadruplex DNA (GGAGAAGGAGGAGGTGGAGGAGGAGGG) (unknown origin) assessed as change in entropy by ITC analysis; format: nucleic-acid assay
SK-BR-3 [4] = experiment: Induction of cell cycle arrest in human SK-BR-3 cells assessed as accumulation of cells at G2/M phase at IC25 concentration incubated for 6 days by PI staining based flow cytometric analysis; format: functional; conditions: time 6.0 day
Quadruplex RNA [5] = conditions: time 10.0 min
Quadruplex DNA [6] = experiment: Binding affinity to c-Myc G4 quadruplex DNA (TGAGGGTGGGTAGGGTGGGTAA) (unknown origin) assessed as binding enthalpy by ITC analysis; format: nucleic-acid assay
SK-BR-3 [7] = experiment: Cytotoxicity against human SK-BR-3 cells assessed as reduction in cell viability incubated for 6 days by SRB assay; format: functional, cell-based; conditions: for IC25: time 6 day
MDA-MB-231 [8] = experiment: Induction of cell cycle arrest in human MDA-MB-231 cells assessed as reduction in G1 phase at IC25 concentration incubated for 6 days by PI staining based flow cytometric analysis; format: functional; conditions: time 6.0 day
Quadruplex DNA [9] = experiment: Binding affinity to c-Myc G4 quadruplex DNA (TGAGGGTGGGTAGGGTGGGTAA) (unknown origin) assessed as equilibrium binding constant (Ka) by ITC analysis; format: nucleic-acid assay
Quadruplex DNA [10] = experiment: Stabilization of G4 quadruplex DNA (unknown origin) in human SK-BR-3 cells assessed as increase in G4 motif at IC50 concentration incubated for 6 days by flow cytometric analysis; format: cell-based; conditions: time 6.0 day
MCF7 [11] = experiment: Downregulation of c-MYC protein expression in human MCF7 cells at IC25 concentration incubated for 6 days by Western blotting analysis; format: functional, cell-based; conditions: time 6.0 day
Quadruplex RNA [12] = conditions: time 10.0 min; remark: listed apart in the source
Quadruplex DNA [13] = conditions: time 10.0 min
Quadruplex DNA [14] = experiment: Binding affinity to c-Myc G4 quadruplex DNA (TGAGGGTGGGTAGGGTGGGTAA) (unknown origin) assessed as Gibbs free energy by ITC analysis; format: nucleic-acid assay
MCF7 [15] = experiment: Induction of DNA damage in human MCF7 cells assessed as increase in gamma-H2AX level at IC50 concentration incubated for 6 days by flow cytometric analysis; format: functional, cell-based; conditions: time 6.0 day
SK-BR-3 [16] = experiment: Induction of DNA damage in human SK-BR-3 cells assessed as increase in gamma-H2AX level at IC50 concentration incubated for 6 days by flow cytometric analysis; format: functional, cell-based; conditions: time 6.0 day
SK-BR-3 [17] = experiment: Induction of DNA damage in human SK-BR-3 cells assessed as increase in gamma-H2AX level at IC25 concentration incubated for 6 days by flow cytometric analysis; format: functional, cell-based; conditions: time 6.0 day
MCF7 [18] = experiment: Cytotoxicity against human MCF7 cells assessed as reduction in cell viability incubated for 6 days by SRB assay; format: functional, cell-based; conditions: for IC25: time 6 day
Quadruplex DNA [19] = experiment: Stabilization of G4 quadruplex DNA (unknown origin) in human MCF7 cells at IC25 concentration incubated for 6 days by flow cytometric analysis; format: cell-based; conditions: time 6.0 day
Quadruplex DNA [20] = experiment: Binding affinity to HER2 G4 quadruplex DNA (GGAGAAGGAGGAGGTGGAGGAGGAGGG) (unknown origin) assessed as equilibrium binding constant (Ka) by ITC analysis; format: nucleic-acid assay
MDA-MB-231 [21] = experiment: Cytotoxicity against human MDA-MB-231 cells assessed as reduction in cell viability incubated for 6 days by SRB assay; format: functional, cell-based; conditions: for IC25: time 6 day
MCF7 [22] = experiment: Induction of DNA damage in human MCF7 cells assessed as increase in gamma-H2AX level at IC25 concentration incubated for 6 days by flow cytometric analysis; format: functional, cell-based; conditions: time 6.0 day
Quadruplex DNA [23] = experiment: Binding affinity to HER2 G4 quadruplex DNA (GGAGAAGGAGGAGGTGGAGGAGGAGGG) (unknown origin) assessed as binding enthalpy by ITC analysis; format: nucleic-acid assay
Quadruplex DNA [24] = conditions: time 10.0 min; remark: listed apart in the source
Quadruplex DNA [25] = conditions: time 10.0 min; remark: listed apart in the source
Quadruplex DNA [26] = conditions: time 10.0 min; remark: listed apart in the source
Quadruplex DNA [27] = experiment: Binding affinity to c-Myc G4 quadruplex DNA (TGAGGGTGGGTAGGGTGGGTAA) (unknown origin) assessed as change in entropy by ITC analysis; format: nucleic-acid assay
MCF7 [28] = experiment: Cytotoxicity against human MCF7 cells assessed as reduction in cell viability at 0.625 to 20 uM incubated for 6 days by SRB assay; format: functional, cell-based; conditions: dose 0.625-20 µM, time 6.0 day
SK-BR-3 [29] = experiment: Cytotoxicity against human SK-BR-3 cells assessed as reduction in cell viability at 0.625 to 20 uM incubated for 6 days by SRB assay; format: functional, cell-based; conditions: dose 0.625-20 µM, time 6.0 day
MCF7 [30] = experiment: Induction of cell cycle arrest in human MCF7 cells assessed as reduction in G1 phase at IC25 concentration incubated for 6 days by PI staining based flow cytometric analysis; format: functional; conditions: time 6.0 day
MDA-MB-231 [31] = experiment: Induction of cell cycle arrest in human MDA-MB-231 cells assessed as reduction in G1 phase at IC50 concentration incubated for 6 days by PI staining based flow cytometric analysis; format: functional; conditions: time 6.0 day
MCF7 [32] = experiment: Downregulation of c-MYC protein expression in human MCF7 cells at IC50 concentration incubated for 6 days by Western blotting analysis; format: functional, cell-based; conditions: time 6.0 day
Quadruplex DNA [33] = experiment: Stabilization of G4 quadruplex DNA (unknown origin) in human MCF7 cells at IC50 concentration incubated for 6 days by flow cytometric analysis; format: cell-based; conditions: time 6.0 day
MDA-MB-231 [34] = experiment: Induction of DNA damage in human MDA-MB-231 cells assessed as increase in gamma-H2AX level at IC50 concentration incubated for 6 days by flow cytometric analysis; format: functional, cell-based; conditions: time 6.0 day
MCF7 [35] = experiment: Induction of cell cycle arrest in human MCF7 cells assessed as reduction in G1 phase at IC50 concentration incubated for 6 days by PI staining based flow cytometric analysis; format: functional; conditions: time 6.0 day
MDA-MB-231 [36] = experiment: Induction of DNA damage in human MDA-MB-231 cells assessed as increase in gamma-H2AX level at IC25 concentration incubated for 6 days by flow cytometric analysis; format: functional, cell-based; conditions: time 6.0 day
MDA-MB-231 [37] = experiment: Induction of DNA damage in human MDA-MB-231 cells assessed as increase in gamma-H2AX level incubated for 6 days by flow cytometric analysis; format: functional, cell-based; conditions: time 6.0 day
[38] = Homo sapiens, MDA-MB-231, 144 h

Row | deltaG (Quadruplex DNA [2]) [kcal/mol] | TdeltaS (Quadruplex DNA [3]) [kcal/mol] | deltaTm1/2 (Quadruplex RNA [5]) [°C] | deltaH (Quadruplex DNA [6]) [kcal/mol] | Ka (Quadruplex DNA [9]) | deltaTm1/2 (Quadruplex RNA [12]) [°C] | deltaTm1/2 (Quadruplex DNA [13]) [°C] | deltaG (Quadruplex DNA [14]) [kcal/mol] | deltaTm1/2 (Quadruplex DNA [24]) [°C] | deltaTm1/2 (Quadruplex DNA [25]) [°C] | deltaTm1/2 (Quadruplex DNA [26]) [°C] | SMILES | Activity (SK-BR-3 [1]) | Activity (SK-BR-3 [4]) | IC50 (SK-BR-3 [7]; Homo sapiens, SK-BR-3, 144 h) [nM] | Activity (MDA-MB-231 [8]) | Activity (Quadruplex DNA [10]) | Activity (MCF7 [15]) | Activity (SK-BR-3 [16]) | Activity (SK-BR-3 [17]) | IC50 (MCF7 [18]; Homo sapiens, MCF7, 144 h) [nM] | also measured
1 | -7.31 | 0.621 | 6.6 | -5.5 | 2.3 10^5/M | 14.7 | 7.5 | -7.29 | 15.9 | 16.2 | 12.7 | CC[C@@]1(O)C(=O)OCc2c1cc1n(c2=O)Cc2c-1nc1ccccc1c2CCNC(C)C [BELOTECAN] | Active | Active | 2 | Active | Active | Active; Slightly Lower Dna Damage Observed | Active; Slightly Lower Dna Damage Observed | Active; Slightly Lower Dna Damage Observed | 1.2 | IC25 (SK-BR-3 [7]): 0.9 10^-3microM; Activity (MCF7 [11]): Active; IC25 (MCF7 [18]): 0.5 10^-3microM; Activity (Quadruplex DNA [19]): Active; Ka (Quadruplex DNA [20]): 2.3 10^5/M; IC50 (MDA-MB-231 [21]; [38]): 2.4 nM; IC25 (MDA-MB-231 [21]): 1.4 10^-3microM; Activity (MCF7 [22]): Active; Slightly Lower Dna Damage Observed; deltaH (Quadruplex DNA [23]): -6.69 kcal/mol; TdeltaS (Quadruplex DNA [27]): 1.79 kcal/mol
2 |  |  | 5.6 |  |  | 8.5 | -2.6 |  | 4.5 | 9.8 | 4.9 | Cc1c(-c2ccccc2)oc2c(C(=O)OCCN3CCCCC3)cccc2c1=O |  |  |  |  |  |  |  |  |  | Activity (MCF7 [28]): Active; Activity (SK-BR-3 [29]): Active
3 | -7.29 | 1.89 | 6.6 | -1.86 | 1.5 10^5/M | > 20 | 8.7 | -7.07 | 19 | 19.6 | 14.8 | CCc1c2c(nc3ccc(OC(=O)N4CCC(N5CCCCC5)CC4)cc13)-c1cc3c(c(=O)n1C2)COC(=O)[C@]3(O)CC [IRINOTECAN] | Active | Active | 500 | Active | Active | Active; Slightly Lower Dna Damage Observed | Active; Slightly Lower Dna Damage Observed | Active; Slightly Lower Dna Damage Observed | 480 | Activity (MCF7 [30]): Active; Activity (MDA-MB-231 [31]): Active; Activity (MCF7 [32]): Active; Activity (Quadruplex DNA [33]): Active; IC25 (SK-BR-3 [7]; Homo sapiens, SK-BR-3, 144 h, read-out: IC25): 360 nM; Activity (MDA-MB-231 [34]): Active; IC25 (MCF7 [18]; Homo sapiens, MCF7, 144 h, read-out: IC25): 280 nM; Activity (Quadruplex DNA [19]): Active; Ka (Quadruplex DNA [20]): 2.2 10^5/M; Activity (MCF7 [35]): Active; Activity (MDA-MB-231 [36]): Active; IC50 (MDA-MB-231 [21]; [38]): 1600 nM; IC25 (MDA-MB-231 [21]; Homo sapiens, MDA-MB-231, 144 h, read-out: IC25): 1100 nM; Activity (MCF7 [22]): Active; Slightly Lower Dna Damage Observed; deltaH (Quadruplex DNA [23]): -5.4 kcal/mol; Activity (MDA-MB-231 [37]): Dose-dependent-effect; TdeltaS (Quadruplex DNA [27]): 5.21 kcal/mol
